Measurements taken from ChEMBL document CHEMBL1156182 (Bioorg Med Chem Lett, 2010).
Active and inactive are the calls of the source. The calls are words filed in the database; no cut-off is given here.

How the values were obtained:
[1] = biological target: T1, Peroxisome proliferator-activated receptor gamma (Homo sapiens, UniProt P37231)
T1 sequence (P37231 whole entry): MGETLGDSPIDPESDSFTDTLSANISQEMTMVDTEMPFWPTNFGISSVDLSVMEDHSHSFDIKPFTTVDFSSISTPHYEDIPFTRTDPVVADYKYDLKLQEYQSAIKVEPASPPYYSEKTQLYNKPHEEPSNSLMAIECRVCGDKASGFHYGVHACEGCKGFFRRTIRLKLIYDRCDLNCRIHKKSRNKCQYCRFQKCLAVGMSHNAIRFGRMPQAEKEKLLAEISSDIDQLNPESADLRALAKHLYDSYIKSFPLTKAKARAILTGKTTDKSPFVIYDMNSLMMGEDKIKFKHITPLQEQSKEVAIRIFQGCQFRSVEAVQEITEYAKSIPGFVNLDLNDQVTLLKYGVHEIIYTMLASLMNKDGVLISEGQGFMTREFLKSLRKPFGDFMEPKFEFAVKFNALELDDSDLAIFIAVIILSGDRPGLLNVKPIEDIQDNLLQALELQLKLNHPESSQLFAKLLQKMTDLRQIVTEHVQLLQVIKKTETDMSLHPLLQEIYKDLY

[2] = biological target: T2, Peroxisome proliferator-activated receptor alpha (Homo sapiens) (UniProt Q07869); test: Transactivation of human PPARalpha LBD expressed in african green monkey Cos7 cells co-transfected with fused GAL4-DBD at 10 uM after 14 hrs by Dual-Glo Luciferase reporter gene assay; assay type: cell-based; settings: COS-7
T2 sequence (whole entry): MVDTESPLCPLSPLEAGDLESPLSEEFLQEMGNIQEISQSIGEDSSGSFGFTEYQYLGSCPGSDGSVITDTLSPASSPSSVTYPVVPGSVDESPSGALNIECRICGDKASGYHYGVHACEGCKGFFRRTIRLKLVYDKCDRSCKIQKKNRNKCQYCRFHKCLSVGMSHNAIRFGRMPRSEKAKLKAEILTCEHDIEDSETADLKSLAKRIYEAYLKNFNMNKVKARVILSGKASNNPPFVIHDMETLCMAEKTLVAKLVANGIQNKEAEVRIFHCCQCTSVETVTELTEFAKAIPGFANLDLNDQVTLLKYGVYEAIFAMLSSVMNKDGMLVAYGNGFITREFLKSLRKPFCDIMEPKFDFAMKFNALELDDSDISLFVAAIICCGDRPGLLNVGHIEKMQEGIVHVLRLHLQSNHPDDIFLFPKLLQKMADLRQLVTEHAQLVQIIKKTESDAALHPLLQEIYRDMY

[3] = biological target: T3, Peroxisome proliferator-activated receptor gamma (Homo sapiens) (UniProt P37231); test: Agonist activity at human PPARgamma LBD expressed in african green monkey Cos7 cells co-transfected with fused GAL4-DBD after 14 hrs by Dual-Glo Luciferase reporter gene transactivation assay; assay type: functional, cell-based; settings: COS-7
T3 sequence (whole entry): T1 sequence (P37231 whole entry)

[4] = biological target: T3, Peroxisome proliferator-activated receptor gamma (Homo sapiens); test: Transactivation of human PPARgamma LBD expressed in african green monkey Cos7 cells co-transfected with fused GAL4-DBD at 10 uM after 14 hrs by Dual-Glo Luciferase reporter gene assay; assay type: cell-based; settings: COS-7
[5] = biological target: T3, Peroxisome proliferator-activated receptor gamma (Homo sapiens); test: Transactivation of human PPARgamma LBD expressed in african green monkey Cos7 cells co-transfected with fused GAL4-DBD after 14 hrs by Dual-Glo Luciferase reporter gene assay; settings: COS-7

SMILES | EC50 [1] | Activity [2] | Activity [3] | Activity [4] | Activity [5]
O=C(O)C(Sc1nc(Cl)cc(Nc2ccc(F)cc2)n1)c1cccc2ccccc12 (stereo not given) | 13 µM | inactive |  |  | 
O=C(O)C(Sc1nc(Cl)cc(Nc2cccc(Cl)c2)n1)c1cccc2ccccc12 (stereo not given) | 7.3 µM | inactive |  |  | 
CCc1ccc(CCOc2ccc(CC3SC(=O)NC3=O)cc2)nc1 (stereo not given) |  | inactive |  |  | 
O=C(O)C(Sc1nc(Cl)cc(NCCc2ccccc2)n1)c1cccc2ccccc12 (stereo not given) | 10.8 µM | inactive |  |  | 
O=C(O)C(Sc1nc(Cl)cc(Nc2ccc3ccccc3c2)n1)c1cccc2ccccc12 (stereo not given) | 6.9 µM | inactive |  |  | 
Cc1ccc(Nc2cc(Cl)nc(SC(C(=O)O)c3cccc4ccccc34)n2)cc1C (stereo not given) | 7.8 µM | inactive |  |  | 
CC(C)c1ccc(Nc2cc(Cl)nc(SC(C(=O)O)c3cccc4ccccc34)n2)cc1 (stereo not given) | 7.6 µM | inactive |  |  | 
O=C(O)C(Sc1nc(Cl)cc(Nc2ccc(Cl)cc2)n1)c1cccc2ccccc12 (stereo not given) | 9 µM | inactive |  |  | 
Cc1cccc(Nc2cc(Cl)nc(SC(C(=O)O)c3ccc(-c4ccccc4)c4ccccc34)n2)c1C (stereo not given) | 4.5 µM | inactive |  |  | 
O=C(O)C(Sc1nc(Cl)cc(Nc2ccc3c(c2)CCC3)n1)c1cccc2ccccc12 (stereo not given) | 6.8 µM | inactive |  |  | 
Cc1cccc(Nc2cc(Cl)nc(SC(C(=O)O)c3cccc4ccccc34)n2)c1C (stereo not given) | 6.2 µM | inactive | inactive |  | 
CC(C)CCNc1cc(Cl)nc(SC(C(=O)O)c2cccc3ccccc23)n1 (stereo not given) | 8.9 µM | inactive |  |  | 
O=C(O)C(Sc1nc(Cl)cc(NCCCc2ccccc2)n1)c1cccc2ccccc12 (stereo not given) | 8.9 µM | inactive |  |  | 
CCCCCCC(Sc1nc(Cl)cc(Nc2cccc(C)c2C)n1)C(=O)O (stereo not given) | 3.6 µM |  |  |  | 
CCCCNc1cc(Cl)nc(SC(C(=O)O)c2cccc3ccccc23)n1 (stereo not given) |  | inactive |  | inactive | inactive
